Like-named read-outs stand apart in the source and are kept apart here. One block for each compound: values may come before it.
How the values were obtained:
[1] = tested on: MMP1 expression by activated synovial fibroblasts (RASFs); assay: 'MMP assay': MMP1 ELISA on supernatant of complex trigger activated synovial fibroblasts; format: cell-based; conditions: Homo sapiens, Fibroblast, Table 4, 48 hrs
Method: A 384-well format ELISA for measurement of MMP1 is developed. Various primary antibodies are tested, as well as various ELISA protocols. […] The antibody is diluted in buffer 40 (1.21 g Tris base (Sigma), 0.58 g NaCl (Calbiochem) and 5 ml 10% NaN3 (Sigma) in 1 L milliQ water and adjusted to pH 8.5). After overnight incubation at 4° C., plates are washed with PBS (80 g NaCl, 2 g KCl (Sigma), 11.5 g Na2HPO4.7H2O and 2 g KH2PO4 in 10 L milliQ; pH 7.4) and blocked with 100 μL/well Casein buffer (2% Casein (VWR International) in PBS). Next day, casein buffer is removed from ELISA plates and replaced by 50 μL/well EC buffer (4 g casein, 2.13 g Na2HPO4 (Sigma), 2 g bovine albumin (Sigma), 0.69 g NaH2PO4.H2O (Sigma), 0.5 g CHAPS (Roche), 23.3 g NaCl, 4 ml 0.5 M EDTA pH 8 (Invitrogen), 5 ml 10% NaN3 in 1 L milliQ and adjusted to pH 7.0). 0.25 mM DTT (Sigma) is added to the thawed samples plates. After removal of the EC buffer, 20 μL of sample is transferred to the ELISA plates. After overnight incubation at 4° C. plates are washed twice with PBS and once with PBST (PBS with 0.05% Tween-20 (Sigma)) and incubated with 35 μL/well biotinylated anti-MMP1 antibody solution (R&D). This secondary antibody is diluted in buffer C (0.82 g NaH2PO4.H2O, 4.82 g Na2HPO4, 46.6 g NaCl, 20 g bovine albumin and 4 mL 0.5M EDTA pH 8 in 2 L milliQ and adjusted to pH 7.0) at a concentration of 5 μg/mL. After 2 h of incubation at RT, plates are washed as described above and incubated with 50 μL/well streptavidin-HRP conjugate (Biosource). Streptavidin-HRP conjugate is diluted in buffer C at a concentration of 0.25 μg/mL. After 45 min, plates are washed as described above and incubated for 5 min with 50 μL/well BM Chem ELISA Substrate (Roche). Readout is performed on the Luminoscan Ascent Luminometer (Labsystems) with an integration time of 200 msec or with an Envision reader (Perkin Elmer).
SFs are seeded at a density of 3000 cells/well in 96 well plates. 24 hrs after seeding, increasing concentrations of dexamethasone are added to the cells. […]

MAPKAPK5 = target: T1, MAPKAPK5 (Homo sapiens, UniProt Q8IW41); assay: MAPKAP-K5 assay (FlashPlate, 33P-ATP)
T1 sequence (Q8IW41 1-473): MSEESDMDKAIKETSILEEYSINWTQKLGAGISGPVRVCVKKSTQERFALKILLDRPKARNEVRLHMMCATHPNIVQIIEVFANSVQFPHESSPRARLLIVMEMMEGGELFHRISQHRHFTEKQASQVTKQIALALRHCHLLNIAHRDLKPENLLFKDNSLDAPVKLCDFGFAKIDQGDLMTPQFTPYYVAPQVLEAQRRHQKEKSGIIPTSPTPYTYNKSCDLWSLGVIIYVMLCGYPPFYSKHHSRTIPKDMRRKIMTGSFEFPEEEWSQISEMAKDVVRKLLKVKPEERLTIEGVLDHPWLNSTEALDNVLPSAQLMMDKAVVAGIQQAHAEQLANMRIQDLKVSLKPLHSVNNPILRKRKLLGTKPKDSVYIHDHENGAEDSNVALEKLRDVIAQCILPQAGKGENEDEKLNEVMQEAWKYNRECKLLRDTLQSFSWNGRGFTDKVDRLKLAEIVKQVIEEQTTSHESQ
Method: MAPKAP-K5 reactions are performed in FlashPlate format using 0.1 or 0.2 μCi 33P-ATP; 0.6 μM ATP; 1 mU MAPKAP-K5; 3 μM MAPKAP-K5 peptide substrate, incubated at room temperature for 30 minutes.
The MAPKAP-K5 kinase reaction is performed in a 384 well polypropylene plate (Matrix Technologies) and then transferred to a streptavidin-coated 384 well flashplate (Perkin-Elmer).
To wells containing 2 μL test compound or standard inhibitor, 13 μL Enzyme mix or diluent are added using a Hydra (Robbins Scientific).
Reactions are started by addition of 10 μL of [2,5×] substrate cocktail using a Multidrop (Thermo-Labsystems), to give final concentrations in the assay of:
Plates are incubated at room temperature for 30 minutes.
Reactions are terminated by the addition of 25 μL EDTA (50 mM) to each well using a Micro-fill (Biotek).
Reactions are transferred to a streptavidin-coated flashplate using a Zymark robotic system. Plates are incubated for 60 minutes at room temperature.
All wells are washed 3 times with 100 μl phosphate buffered saline using a Tecan plate washer.
Radioactivity is determined by scintillation counting of the flashplate (empty wells) on a Packard TopCount.
Enzyme Mix: • Enzyme • 50 mM Tris Hcl (pH 7.5) • 0.1 mM EGTA • 2 mM DTT • 1 mg/mL BSA
Reaction Buffer: • 50 mM Tris Hcl (pH 7.5) • 0.1 mM EGTA • 10 mM Magnesium acetate • 2 mM DTT

[2] = tested on: TNFα release by human PBMCs; assay: Cytokine (TNFα) release by LPS stimulated human PBMCs, ELISA; format: cell-based; conditions: ELISA of supernatant
Method: For the assay PBMCs are seeded at 2.5E6 cells/mL in 160 μL in 96-well plates (Nunc). Serial dilution of the test compounds are made first in DMSO (Sigma) and then diluted 50-fold in M199 medium (Gibco) containing 1% heat-inactivated FBS. Compounds are further 1/10 diluted in the assay plates to obtain final DMSO concentration of 0.2%. Cells are preincubated with the compounds for 1 hr at 37° C., 5% CO2. Then, cells are stimulated with LPS (Escherichia coli serotype 026:B6, Cat. No. L2654, Sigma) that is added in a volume of 20 μL to a final concentration of 1 μg/mL and cells are further cultured for 24 hr. The plates are centrifuged and the supernatant is collected and stored at −80° C. until analysis of appropriate dilutions in ELISAs.
After 4 hr incubation at RT, blocking buffer is removed and plates are washed once with PBST (1×PBS with 0.05% Tween-20 (Sigma)). Then, 40 μL of sample is transferred to the ELISA plates and plates are incubated at 4° C. […] Readout is performed on the Luminoscan Ascent Luminometer (Labsystems) with an integration time of 100 msec delivering raw data (RLU: relative luminescence units). […] Where compounds are tested at 8 concentrations (1/3 serial dilution), EC50-values can be calculated by curve fitting of the means of the PIN data achieved for a compound at each test concentration.

[3] = Table 1, 0.6 μM ATP, 30 minutes room temperature
[4] = read-out: MAPKAPK5 IC50, Table 1, 0.6 μM ATP, 30 minutes room temperature

Structure (SMILES): Clc1cc(Nc2ncc(-c3cn[nH]c3)n3ncnc23)ccc1N1CCOCC1 [Compound 18]
MAPKAPK5 IC50 (nM) (MAPKAPK5; [3]): =

Structure (SMILES): NC(=O)c1ccc(-c2cnc(Nc3ccc(OCCN4CCOCC4)cc3)c3ncnn23)s1 [Compound 22, 5-(8-(4-(2-Morpholinoethoxy)phenylamino)-[1,2,4]triazolo[1,5-a]pyrazin-5-yl)thiophene-2-carboxamide]
IC50 (MAPKAPK5; [4]): > 1000 nM

Structure (SMILES): C[C@@H]1CN(c2ccc(Nc3ncc(-c4csc(C(N)=O)c4)n4ncnc34)cc2)[C@@H](C)CN1C [Compound 32]
EC50 ([2]; Homo sapiens, PBMC, 24 h, Table 5, LPS 1 μg/mL): 101 to 500 nM

Structure (SMILES): NC(=O)c1cc(-c2cnc(Nc3ccc(OCCN4CCOCC4)cc3)c3ncnn23)cs1 [Compound 21, 4-(8-(4-(2-Morpholinoethoxy)phenylamino)-[1,2,4]triazolo[1,5-a]pyrazin-5-yl)thiophene-2-carboxamide]
IC50 (MAPKAPK5; [4]): 501 to 1000 nM

Structure (SMILES): NC(=O)c1c(F)cc(-c2cnc(Nc3ccc(N4CCOCC4)cc3)c3ncnn23)cc1F [Compound 14]
MAPKAPK5 IC50 (nM) (MAPKAPK5; [3]): =

Structure (SMILES): NC(=O)c1cc(-c2cnc(Nc3ccc(N4CCN(CC5CC5)CC4)nc3)c3ncnn23)cs1 [Compound 54, 4-{8-[6-(4-[Cyclopropylmethyl]piperazin-1-yl)-pyridin-3-ylamino]-[1,2,4]triazolo[1,5-a]pyrazin-5-yl}thiophene-2-carboxylic acid amide]
EC50 ([2]; Table 5, LPS 1 μg/mL, 24 hr, read-out: PBMC EC50): > 1000 nM

Structure (SMILES): CC(C)N1CCN(c2ccc(Nc3ncc(-c4cc(F)c(C(N)=O)c(F)c4)n4ncnc34)cc2)CC1 [Compound 26]
MAPKAPK5 IC50 (nM) (MAPKAPK5; [3]): =

Structure (SMILES): O=C(NCc1ccc(O)cc1)c1cccc(Nc2ncc(-c3cn[nH]c3)n3ncnc23)c1 [Compound 131, N-(4-Hydroxybenzyl) 3-[5-(1H-pyrazol-4-yl)-[1,2,4]triazolo[1,5-a]pyrazin-8-ylamino]benzamide]
EC50 [1]: > 1000 nM

Structure (SMILES): O=C(N[C@H]1CCN(Cc2ccccc2)C1)c1ccc(Nc2ncc(-c3cn[nH]c3)n3ncnc23)cc1 [Compound 191]
EC50 [1]: > 1000 nM

Second part, led by results:

IC50 (MAPKAPK5): 101 to 500 nM
Structure (SMILES): O=C(N[C@@H]1CCN(Cc2ccccc2)C1)c1ccc(Nc2ncc(-c3cn[nH]c3)n3ncnc23)cc1 [Compound 147]
EC50 [1]: > 1000 nM

IC50 (MAPKAPK5): 101 to 500 nM
Structure (SMILES): CN(C)Cc1cc(Nc2ncc(-c3ccc4c(c3)CNC4=O)n3ncnc23)ccc1N1CCNCC1 [Compound 175]

IC50 (MAPKAPK5): 101 to 500 nM
Structure (SMILES): CCN1CCCC1CNC(=O)c1ccc(Nc2ncc(-c3cn[nH]c3)n3ncnc23)cc1 (centres unmarked) [Compound 163]

IC50 (MAPKAPK5): 101 to 500 nM
Structure (SMILES): CC(C)N1CCC(c2ccc(Nc3ncc(-c4cnc5c(c4)CNC5=O)n4ncnc34)cc2)CC1 [Compound 190]
